We go through 10 compounds from patent US12358907B2, “Substituted pyrrolidine amides III” (GRÜNENTHAL GMBH, priority 2019, dated 2025).

The target of assay [1] is human glucocorticoid receptor (Homo sapiens (Human), UniProt P04150). The assay is described as follows: Human glucocorticoid receptor (hGR) ligand-binding assay (3H-dexamethasone competition, IM9 cytosol). To be noted: read-out: % inhibition hGR at 1 μM. The method, then:
Preferably, the glucocortitcoid receptor extracted from cytosol of IM9 cells is used for competitive radioligand binding assays to calculate percentage inhibition of the binding of radiolabeled ligand 3H-dexamethasone at the human glucocorticoid receptor.
The human lymphoblast cell line IM9 (ATCC, Bethesda, MD) was cultivated in RPMI 1640 media containing 10% fetal bovine serum, penicillin (100 U/ml), streptomycin (100 μg/ml), and 2 mM L-glutamine at 37° and 7% CO2 in a humidified incubator. Cells were centrifuged for 10 minutes at 1500 g and were washed in PBS and repelleted. Cell were then resuspended in homogenization buffer consisting of: 10 mM TES, 10 mM sodium molybdate, 1 mM EDTA, pH 7.4, 20 mM 2-mercaptoethanol, and 10% glycerol. Disruption of the cells was performed by nitrogen cavitation using 2×15 minutes at 600 to 750 psi nitrogen in a N2 cavitator at 0° C. The cell preparation was then centrifuged at 27,000 g for 15 minutes, and the resultant supernatant (=cytosol of IM9 cells) was centrifuged at 103,000 g for 60 minutes at 4° C. The amount of protein in the supernatant fraction was determined using a BCA assay kit and aliquots were snap frozen in a dry ice-acetone bath and stored at −70° C. Competitive binding assays were done in duplicate in homogenization buffer with a total volume of 200 μl. To this end, 1 mg of IM9 cytosol, 0.05 μCi (1.5 nM) of 3H-dexamethasone and unlabeled Example compounds as competitor compounds at 1 μM were mixed. The reaction was stopped after incubation at 0° C. for 16 to 18 hours by the addition of 100 μl of a charcoal-dextran mixture (2% activated charcoal, 0.5% dextran in 10 mM Tris, 1 mM EDTA, pH 7.4). Another incubation step at 0° C. for 10 minutes followed before the samples were centrifuged for 5 minutes at 8200 g. 100 μl of the supernatant) was finally assayed for radioactivity by liquid scintillationspectrometry, and percentage inhibition of 3H-dexamethasone binding was calculated.

The target in assay [2] is glucocorticoid receptor (GAL4 DBD-GR) (Homo sapiens (Human), UniProt P04150). The assay is described as follows: GR cell-based assays (GRE agonist / GRE antagonist), CHO-Gal4/GR luciferase reporter. In a few lines:
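CHO cells stably carrying GAL4 DBD-GR ligand-binding-domain fusion and a GAL4-UAS firefly luciferase reporter were treated in Opti-MEM with 8 half-log concentrations from 10 μM to 0.003 μM (0.5% DMSO, quadruplicates). Antagonist mode measured repression of beclomethasone-induced signal. Luminescence after lysis gave EC50 or IC50.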
(Reporter assays use an easily measured gene product as a stand-in for the process of interest.)

Where two headings read alike, the source gives them in different places.

glucocorticoid receptor (GAL4 DBD-GR), sequence (P04150 524-758): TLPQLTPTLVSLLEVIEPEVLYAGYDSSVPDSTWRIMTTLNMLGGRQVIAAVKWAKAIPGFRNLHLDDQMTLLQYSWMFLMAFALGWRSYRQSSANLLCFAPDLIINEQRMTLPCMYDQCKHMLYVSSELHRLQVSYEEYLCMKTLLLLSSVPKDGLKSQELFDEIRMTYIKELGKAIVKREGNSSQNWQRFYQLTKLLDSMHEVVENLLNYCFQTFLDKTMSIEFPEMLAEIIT
human glucocorticoid receptor, sequence (P04150 whole entry): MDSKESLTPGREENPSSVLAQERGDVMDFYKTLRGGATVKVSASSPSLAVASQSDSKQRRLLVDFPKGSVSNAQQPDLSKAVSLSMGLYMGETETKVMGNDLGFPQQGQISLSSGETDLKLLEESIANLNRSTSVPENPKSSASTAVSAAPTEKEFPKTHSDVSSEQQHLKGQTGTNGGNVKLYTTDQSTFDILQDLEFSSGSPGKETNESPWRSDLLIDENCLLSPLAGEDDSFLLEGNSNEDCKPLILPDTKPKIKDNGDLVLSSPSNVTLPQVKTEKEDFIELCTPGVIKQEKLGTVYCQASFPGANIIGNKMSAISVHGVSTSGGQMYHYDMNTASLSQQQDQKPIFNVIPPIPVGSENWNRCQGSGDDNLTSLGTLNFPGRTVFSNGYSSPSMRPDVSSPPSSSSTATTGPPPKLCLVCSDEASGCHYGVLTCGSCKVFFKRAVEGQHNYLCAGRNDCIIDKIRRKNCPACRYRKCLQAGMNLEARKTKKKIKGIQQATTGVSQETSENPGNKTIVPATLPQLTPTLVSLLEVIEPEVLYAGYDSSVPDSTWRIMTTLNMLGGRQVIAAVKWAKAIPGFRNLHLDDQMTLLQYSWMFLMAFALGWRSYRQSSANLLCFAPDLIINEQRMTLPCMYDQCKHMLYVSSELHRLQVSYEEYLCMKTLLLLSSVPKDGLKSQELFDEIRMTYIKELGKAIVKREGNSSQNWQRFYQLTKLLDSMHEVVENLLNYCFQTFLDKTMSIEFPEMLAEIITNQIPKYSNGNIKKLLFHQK

Take `O=C(N[C@@H]1[C@@H](c2ccccc2)N(c2ccc3c(ccn3-c3ccc(F)cc3)c2)C(=O)C12CC2)C1CC1` (racemic) [Example 5, N-trans-(5-(1-(4-fluorophenyl)-1H-indol-5-yl)-4-oxo-6-phenyl-5-azaspiro[2.4]heptan-7-yl)cyclopropanecarboxamide]: the inhibition (as a rule, the relative decrease from the control value, in per cent) at 1 µM in assay [1] was 95%. The IC50 (commonly the concentration at which inhibition is half-maximal) in assay [2] (read-out: IC50 or EC50) lay in the range of 100 to 1000 nM. In the case of `Cc1cc(C(=O)N[C@@H]2[C@@H](c3ccccc3)N(c3ccc4c(cnn4-c4ccc(=O)n(C)c4)c3)C(=O)C2(C)C)no1` [Example 7, N-((2R,3S)-4,4-dimethyl-1-(1-(1-methyl-6-oxo-1,6-dihydropyridin-3-yl)-1H-indazol-5-yl)-5-oxo-2-phenylpyrrolidin-3-yl)-5-methylisoxazole-3-carboxamide], the inhibition at 1 µM in assay [1] turned out to be 96%. In assay [2] (read-out: IC50 or EC50), the IC50 was 1000 to 15000 nM. The like results for `Cc1cnc(C(=O)N[C@@H]2[C@@H](c3ccccc3)N(c3ccc4c(cnn4-c4ccc(=O)n(C)c4)c3)C(=O)C2(C)C)s1` [Example 6, N-[(2R,3S)-4,4-Dimethyl-1-[1-(1-methyl-6-oxo-1H-pyridin-3-yl)-1H-indazol-5-yl]-5-oxo-2-phenyl-pyrrolidin-3-yl]-5-methyl-thiazole-2-carboxylic acid amide] were, in that order, 97% and 100 to 1000 nM. As for `Cn1cc(-n2ncc3cc(N4C(=O)C(C)(C)[C@@H](NC(=O)c5cnco5)[C@@H]4c4ccccc4)ccc32)ccc1=O` [Example 21, N-[(2S,3R)-4,4-Dimethyl-1-[1-(1-methyl-6-oxo-1H-pyridin-3-yl)-1H-indazol-5-yl]-5-oxo-2-phenyl-pyrrolidin-3-yl]-oxazole-5-carboxylic acid amide], in assay [1], the inhibition at 1 µM stood at 22%. For the compound `CC1(C)C(=O)N(c2ccc3c(cnn3-c3ccc(F)cc3)c2)[C@@H](c2ccccc2)[C@@H]1NC(=O)C1CC1` [Example 2, N-[(2S,3R)-1-[1-(4-Fluorophenyl)-1H-indazol-5-yl]-4,4-dimethyl-5-oxo-2-phenyl-pyrrolidin-3-yl]-cyclopropanecarboxylic acid amide], the inhibition at 1 µM in assay [1] was 91%. Further, the 50% inhibitory concentration (IC50) in assay [2] (read-out: IC50 or EC50) is 100 to 1000 nM. The like results for `O=C(N[C@@H]1[C@@H](c2ccccc2)N(c2ccc3c(cnn3-c3ccc(F)cc3)c2)C(=O)C12CC2)C1CC1` (racemic) [Example 3, N-[rac-(6R,7S)-5-[1-(4-Fluorophenyl)-1H-indazol-5-yl]-4-oxo-6-phenyl-5-azaspiro[2.4]heptan-7-yl]-cyclopropanecarboxylic acid amide] were, in that order, 98% and less than 100 nM. On to `Cc1scnc1C(=O)N[C@@H]1[C@@H](c2ccccc2)N(c2ccc3c(cnn3-c3ccc(=O)n(C)c3)c2)C(=O)C1(C)C` [Example 18, N-[(2R,3S)-4,4-Dimethyl-1-[1-(1-methyl-6-oxo-1H-pyridin-3-yl)-1H-indazol-5-yl]-5-oxo-2-phenyl-pyrrolidin-3-yl]-5-methyl-thiazole-4-carboxylic acid amide], for which the inhibition at 1 µM in assay [1] amounted to 29%. The same measure, in the same setting: the value for `Cc1cc(C(=O)N[C@H]2[C@H](c3ccccc3)N(c3ccc4c(cnn4-c4ccc(=O)n(C)c4)c3)C(=O)C2(C)C)no1` [Example 22, N-[(2S,3R)-4,4-Dimethyl-1-[1-(1-methyl-6-oxo-1H-pyridin-3-yl)-1H-indazol-5-yl]-5-oxo-2-phenyl-pyrrolidin-3-yl]-5-methyl-isoxazole-3-carboxylic acid amide] was 18%. Regarding `CC(F)(F)C(=O)N[C@H]1[C@H](c2ccccc2)N(c2ccc3c(cnn3-c3ccc(F)cc3)c2)C(=O)C1(C)C` [Example 4, 2,2-Difluoro-N-[(2S,3R)-1-[1-(4-fluorophenyl)-1H-indazol-5-yl]-4,4-dimethyl-5-oxo-2-phenyl-pyrrolidin-3-yl]-propionamide], the inhibition at 1 µM in assay [1] is 95%. For the same compound, in assay [2] (read-out: IC50 or EC50), the IC50 lay within 100 to 1000 nM. As to `CC1(C)C(=O)N(c2ccc3c(cnn3-c3ccc(F)cc3)c2)[C@H](c2ccccc2)[C@H]1NC(=O)C1CC1` [Example 1, N-[(2R,3S)-1-[1-(4-Fluorophenyl)-1H-indazol-5-yl]-4,4-dimethyl-5-oxo-2-phenyl-pyrrolidin-3-yl]-cyclopropanecarboxylic acid amide], the inhibition at 1 µM in assay [1] was 99%. For the same compound, the IC50 in assay [2] (CHO-Gal4/GR reporter cells, agonist mode (EC50) or antagonist mode against beclometasone (IC50), 6 hour incubation) is less than 100 nM.
